Assay results published in PubChem BioAssay AID1963976 (Molecular Pharmacology Branch, DTP, NCI, 2024).

System: 435261-313-R-J1-PDC tumor spheroid viability
Assay: Anticancer human tumor 435261-313-R-J1-PDC patient-derived colon adenocarcinoma cell line growth inhibition [PI3K]
Settings: spheroids with HUVEC and MSC; for IC50: curve of first compound; for viability, T/C: stronger effect = lower value; active = viability on the fitted dose curve at most 10% of control; inactive = the rest
Method in brief: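 We assembled tumor spheroids that included a stromal compartment of HUVEC and MSCs, then exposed them to targeted agents alone and together with PI3K pathway inhibitors. Concentration series descended by half-log from clinically achievable Cmax levels. Viability served as the endpoint.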

[1] = second compound 0.0316 µM, first compound 0.0316 µM
[2] = second compound 0.0316 µM, first compound 0.1 µM
[3] = second compound 0.0316 µM, first compound 0.316 µM
[4] = second compound 0.0316 µM, first compound 1 µM
[5] = second compound 0.0316 µM, first compound 3.16 µM
[6] = second compound 0.0316 µM, first compound 10 µM
[7] = second compound 0.1 µM, first compound 0.0316 µM
[8] = second compound 0.1 µM, first compound 0.1 µM
[9] = second compound 0.1 µM, first compound 0.316 µM
[10] = second compound 0.1 µM, first compound 1 µM
[11] = second compound 0.1 µM, first compound 3.16 µM
[12] = second compound 0.1 µM, first compound 10 µM
[13] = second compound 0.316 µM, first compound 0.0316 µM
[14] = second compound 0.316 µM, first compound 0.1 µM
[15] = second compound 0.316 µM, first compound 0.316 µM
[16] = second compound 0.316 µM, first compound 1 µM
[17] = second compound 0.316 µM, first compound 3.16 µM
[18] = second compound 0.316 µM, first compound 10 µM
[19] = second compound 1 µM, first compound 0.0316 µM
[20] = second compound 1 µM, first compound 0.1 µM
[21] = second compound 1 µM, first compound 0.316 µM
[22] = second compound 1 µM, first compound 1 µM
[23] = second compound 1 µM, first compound 3.16 µM
[24] = second compound 1 µM, first compound 10 µM
[25] = second compound 3.16 µM, first compound 0.0316 µM
[26] = second compound 3.16 µM, first compound 0.1 µM
[27] = second compound 3.16 µM, first compound 0.316 µM
[28] = second compound 3.16 µM, first compound 1 µM
[29] = second compound 3.16 µM, first compound 3.16 µM
[30] = second compound 3.16 µM, first compound 10 µM
[31] = second compound 10 µM, first compound 0.0316 µM
[32] = second compound 10 µM, first compound 0.1 µM
[33] = second compound 10 µM, first compound 0.316 µM
[34] = second compound 10 µM, first compound 1 µM
[35] = second compound 10 µM, first compound 3.16 µM
[36] = second compound 10 µM, first compound 10 µM

CC(C)NCC(C(=O)N1CCN(c2ncnc3c2C(C)CC3O)CC1)c1ccc(Cl)cc1 (stereo not drawn) + CC(Nc1ncnc2nc[nH]c12)c1cc2cccc(Cl)c2c(=O)n1-c1ccccc1
4130 nM: IC50 (second compound 0.0316 µM)
4820 nM: IC50 (second compound 1 µM)
775 nM: IC50 (second compound 10 µM)
inactive: viability, T/C [1] 98.3% | viability, T/C [2] 102% | viability, T/C [3] 101% | viability, T/C [4] 76.7% | viability, T/C [5] 60% | viability, T/C [6] 24.4% | viability, T/C [7] 104% | viability, T/C [8] 88.9% | viability, T/C [9] 91.2% | viability, T/C [10] 102% | viability, T/C [11] 71.5% | viability, T/C [12] 36.3% | viability, T/C [13] 130% | viability, T/C [14] 88.7% | viability, T/C [15] 77.6% | viability, T/C [16] 67.7% | viability, T/C [17] 72.5% | viability, T/C [18] 26% | viability, T/C [19] 98.1% | viability, T/C [20] 93.9% | viability, T/C [21] 68.1% | viability, T/C [22] 80% | viability, T/C [23] 65.8% | viability, T/C [24] 30.6% | viability, T/C [25] 83.1% | viability, T/C [26] 84.8% | viability, T/C [27] 61.8% | viability, T/C [28] 74.2% | viability, T/C [29] 65.9% | viability, T/C [30] 18.4% | viability, T/C [31] 72.1% | viability, T/C [32] 69.6% | viability, T/C [33] 38.8% | viability, T/C [34] 59.3% | viability, T/C [35] 39.6% | viability, T/C [36] 14.9%
4510 nM: IC50 (second compound 3.16 µM)
3720 nM: IC50 (second compound 0.316 µM)
6390 nM: IC50 (second compound 0.1 µM)

CCN1CCN(Cc2ccc(Nc3ncc(F)c(-c4cc(F)c5nc(C)n(C(C)C)c5c4)n3)nc2)CC1 + CC(Nc1ncnc2nc[nH]c12)c1cc2cccc(Cl)c2c(=O)n1-c1ccccc1
> 1000 nM: IC50 (second compound 0.0316 µM) | IC50 (second compound 0.1 µM) | IC50 (second compound 0.316 µM)
222 nM: IC50 (second compound 1 µM)
20.8 nM: IC50 (second compound 3.16 µM)
< 3.16 nM: IC50 (second compound 10 µM)
inactive: viability, T/C (second compound 0.0316 µM, first compound 0.00316 µM) 97.8% | viability, T/C (second compound 0.0316 µM, first compound 0.01 µM) 81.8% | viability, T/C [1] 63.5% | viability, T/C [2] 60.1% | viability, T/C [3] 54.7% | viability, T/C [4] 51.6% | viability, T/C (second compound 0.1 µM, first compound 0.00316 µM) 73.2% | viability, T/C (second compound 0.1 µM, first compound 0.01 µM) 82.4% | viability, T/C [7] 99.5% | viability, T/C [8] 54.3% | viability, T/C [9] 48.6% | viability, T/C [10] 60.4% | viability, T/C (second compound 0.316 µM, first compound 0.00316 µM) 99.1% | viability, T/C (second compound 0.316 µM, first compound 0.01 µM) 110% | viability, T/C [13] 74.2% | viability, T/C [14] 61.9% | viability, T/C [15] 46.6% | viability, T/C [16] 54.5% | viability, T/C (second compound 1 µM, first compound 0.00316 µM) 96% | viability, T/C (second compound 1 µM, first compound 0.01 µM) 85.3% | viability, T/C [19] 59.7% | viability, T/C [20] 50.3% | viability, T/C [21] 44.9% | viability, T/C [22] 54.6% | viability, T/C (second compound 3.16 µM, first compound 0.00316 µM) 92.2% | viability, T/C (second compound 3.16 µM, first compound 0.01 µM) 62% | viability, T/C [25] 43.9% | viability, T/C [26] 36.1% | viability, T/C [27] 42.1% | viability, T/C [28] 37.7% | viability, T/C (second compound 10 µM, first compound 0.00316 µM) 43.8% | viability, T/C (second compound 10 µM, first compound 0.01 µM) 42.4% | viability, T/C [31] 32.5% | viability, T/C [32] 30.7% | viability, T/C [33] 30.4% | viability, T/C [34] 34.6%

Cn1ncc(Cl)c1-c1cc(C(=O)NC(CN)Cc2cccc(F)c2)sc1Cl (stereo not drawn) + CC(Nc1ncnc2nc[nH]c12)c1cc2cccc(Cl)c2c(=O)n1-c1ccccc1
active: viability, T/C [18] 10.6% | viability, T/C [30] 9.23% | viability, T/C [36] 6.29%
679 nM: IC50 (second compound 3.16 µM)
155 nM: IC50 (second compound 10 µM)
inactive: viability, T/C [1] 95.1% | viability, T/C [2] 74.4% | viability, T/C [3] 75.1% | viability, T/C [4] 63.1% | viability, T/C [5] 27.8% | viability, T/C [6] 14.2% | viability, T/C [7] 86.6% | viability, T/C [8] 96.7% | viability, T/C [9] 50% | viability, T/C [10] 39.9% | viability, T/C [11] 23.9% | viability, T/C [12] 9.05% | viability, T/C [13] 106% | viability, T/C [14] 58.1% | viability, T/C [15] 87.8% | viability, T/C [16] 26.8% | viability, T/C [17] 22.5% | viability, T/C [19] 94.7% | viability, T/C [20] 82.9% | viability, T/C [21] 70.8% | viability, T/C [22] 47.7% | viability, T/C [23] 25.6% | viability, T/C [24] 15.7% | viability, T/C [25] 87.3% | viability, T/C [26] 81.8% | viability, T/C [27] 66.8% | viability, T/C [28] 40.5% | viability, T/C [29] 21.9% | viability, T/C [31] 62.1% | viability, T/C [32] 62.8% | viability, T/C [33] 35% | viability, T/C [34] 27.5% | viability, T/C [35] 22.1%
527 nM: IC50 (second compound 0.1 µM)
565 nM: IC50 (second compound 0.316 µM)
1400 nM: IC50 (second compound 0.0316 µM)
863 nM: IC50 (second compound 1 µM)

Cn1nccc1Nc1nccc(-c2ccn(C(CO)c3ccc(Cl)c(F)c3)c(=O)c2)n1 (stereo not drawn) + CC(Nc1ncnc2nc[nH]c12)c1cc2cccc(Cl)c2c(=O)n1-c1ccccc1
362 nM: IC50 (second compound 0.316 µM)
254 nM: IC50 (second compound 3.16 µM)
68.5 nM: IC50 (second compound 10 µM)
inactive: viability, T/C [1] 83.5% | viability, T/C [2] 64.9% | viability, T/C [3] 84% | viability, T/C [4] 40.1% | viability, T/C [5] 28.7% | viability, T/C [6] 24.9% | viability, T/C [7] 75.4% | viability, T/C [8] 73.4% | viability, T/C [9] 46.5% | viability, T/C [10] 43.6% | viability, T/C [11] 25.8% | viability, T/C [12] 20.6% | viability, T/C [13] 77.9% | viability, T/C [14] 62.7% | viability, T/C [15] 53.6% | viability, T/C [16] 38% | viability, T/C [17] 28.4% | viability, T/C [18] 19.5% | viability, T/C [19] 71.5% | viability, T/C [20] 66.9% | viability, T/C [21] 46.3% | viability, T/C [22] 48.1% | viability, T/C [23] 26% | viability, T/C [24] 19.2% | viability, T/C [25] 77.1% | viability, T/C [26] 67.7% | viability, T/C [27] 42.1% | viability, T/C [28] 32.8% | viability, T/C [29] 23.5% | viability, T/C [30] 12.6% | viability, T/C [31] 58.1% | viability, T/C [32] 46.8% | viability, T/C [33] 28.8% | viability, T/C [34] 18.3% | viability, T/C [35] 16.7% | viability, T/C [36] 9.7%
424 nM: IC50 (second compound 1 µM)
737 nM: IC50 (second compound 0.0316 µM)
416 nM: IC50 (second compound 0.1 µM)
